Laboratory results as given in PubChem BioAssay (NCI).
Where “and” joins values, the source holds several entries; their conditions need not be identical. Equal values may be shown once.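 Protocol summary: plate cells (96-well), add compound at 5 concentrations, incubate 48 h, interpolate endpoints linearly. The concentration for 50% growth inhibition is given as GI50. TGI marks complete inhibition of growth.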

Legend:
Experiment in all cases: NCI-60 cell line screen, 48 h
BT-549 breast = tested on: BT-549 breast
SR leukemia = tested on: SR leukemia
CCRF-CEM leukemia = tested on: CCRF-CEM leukemia
HOP-92 NSCLC = tested on: HOP-92 NSCLC
MCF7 breast = tested on: MCF7 breast
SF-539 CNS = tested on: SF-539 CNS
UO-31 renal = tested on: UO-31 renal
A549 NSCLC = tested on: A549 NSCLC
HCT-116 colon = tested on: HCT-116 colon
RPMI-8226 leukemia = tested on: RPMI-8226 leukemia

| SMILES | GI50 (BT-549 breast) | TGI (BT-549 breast) | GI50 (SR leukemia) [µM] | TGI (SR leukemia) [µM] | GI50 (CCRF-CEM leukemia) [µM] | TGI (CCRF-CEM leukemia) | GI50 (HOP-92 NSCLC) | TGI (HOP-92 NSCLC) | GI50 (MCF7 breast) | TGI (MCF7 breast) | GI50 (SF-539 CNS) | TGI (SF-539 CNS) | GI50 (UO-31 renal) | TGI (UO-31 renal) | GI50 (A549 NSCLC) [µM] | TGI (A549 NSCLC) | GI50 (HCT-116 colon) | TGI (HCT-116 colon) | GI50 (RPMI-8226 leukemia) [µM] | TGI (RPMI-8226 leukemia) |
| --- | --- | --- | --- | --- | --- | --- | --- | --- | --- | --- | --- | --- | --- | --- | --- | --- | --- | --- | --- | --- |
| Nc1nc2c(s1)CCc1c-2c(Br)n(Cc2ccccc2)c1Br | 15.1 µM | 30.2 µM | 3.41 | > 100 | 0.534 | 11.9 µM | 4.43 µM | 23.9 µM | 11.9 µM | 28.6 µM | 15.4 µM | 29.2 µM | 1.8 µM | 4.41 µM | 17.2 | > 100 µM | 2.53 µM | 6.43 µM | – | – |
| c1cc2[nH]ncc2cc1-c1nc2ccc3[nH]ncc3c2c2c1CCCC2 | 1 µM | 3.78 µM | 0.338 | – | 0.836 | > 25.3 µM | 0.966 µM | 4.58 µM | 0.736 µM | 11.2 µM | 1.53 µM | 5.4 µM | 1.33 µM | 4.54 µM | 1.78 | > 31.4 µM | 0.455 µM | 10.6 µM | 0.799 | 4.9 µM |
| Nc1nc(OCc2cc(Br)cs2)c2[nH]cnc2n1 | 15.7 µM | 63.9 µM | 29.5 | > 100 | 37.5 | > 100 µM | 3.11 µM | 37 µM | 25.7 µM | > 100 µM | 18.2 µM | 62.6 µM | 11.1 µM | 60.4 µM | 32.9 | > 100 µM | 19.9 µM | > 100 µM | 19.1 | > 100 µM |
| CC1=CC(=C(c2ccc(N)cc2)c2ccc(N)cc2)C=CC1=N | 0.679 µM and 1.63 µM | 5.47 µM and 7.09 µM and 9.14 µM | – | > 58.8 | 0.626 | 8.16 µM and 31.3 µM | 0.949 µM and 3.25 µM | – | 0.803 µM and 2.32 µM | 11.4 µM and > 66.8 µM and 21.1 µM | 0.632 µM and 2.32 µM | 8.36 µM and 9.18 µM and 16.9 µM | 9.52 µM and 14.9 µM | 55.6 µM and 50.5 µM and 41.3 µM | 2.68 | 20.1 µM and 50.6 µM and 15.9 µM | 0.457 µM and 2.8 µM | 4.15 µM and 25.7 µM and 9.14 µM | – | – |
| Cc1ccccc1-n1ncc(C(=O)c2ccccc2)c1N | > 25 µM | > 25 µM | > 25 | > 25 | > 25 | > 25 µM | 4.2 µM | > 25 µM | > 25 µM | > 25 µM | > 25 µM | > 25 µM | > 25 µM | > 25 µM | > 25 | > 25 µM | > 25 µM | > 25 µM | > 25 | > 25 µM |
| CC1(C)CCC2=C(O1)c1ccccc1C(=O)C2=O | 1.51 µM | 2.92 µM and 1.74 µM | 3.99 | > 100 | 3.3 | > 100 µM | 1.72 µM | 3.33 µM and 10.4 µM | 1.53 µM | 3.6 µM and 1.05 µM | 1.63 µM | 2.99 µM and 0.918 µM | 1.54 µM and 1.05 µM | 2.89 µM and 2.23 µM | 2.15 | 5.14 µM and 1.73 µM | 0.511 µM | 2.01 µM and 0.738 µM | 1.46 | 5.76 µM and 1.48 µM |
| Cn1cc(C2=C(c3cn(C)c4c([N+](=O)[O-])cccc34)C(=O)NC2=O)c2ccccc21 | > 25 µM | > 25 µM | > 25 | > 25 | > 25 | > 25 µM | > 25 µM | > 25 µM | > 25 µM | > 25 µM | > 25 µM | > 25 µM | > 25 µM | > 25 µM | > 25 | > 25 µM | > 25 µM | > 25 µM | > 25 | > 25 µM |
| COc1ccc2c(CN3CCC(C(=O)O)CC3)cc3cc4c(cc3c2c1)OCO4 | 4.03 µM | 17.6 µM | 0.886 | 5.78 | 1 | 6.5 µM | 1.62 µM | 5.34 µM | 3.1 µM | 18.3 µM | 3.38 µM | 14 µM | – | – | 1.77 | 4.34 µM | 1.4 µM | 8.78 µM | 1.4 | 3.59 µM |
| COc1ccc2c(c1)[n+](=O)c(C(=O)c1ccco1)c(C(F)(F)F)n2[O-] | 2.64 µM | 18.9 µM | 0.346 | > 100 | – | – | 1.83 µM | 19.5 µM | 3.82 µM | > 100 µM | 3.41 µM | 15.6 µM | 0.387 µM | 2.51 µM | 2.56 | 16.6 µM | 0.851 µM | 15.1 µM | 1.62 | 22.1 µM |
| Cc1ccc(-c2cc3c(SCC(=O)Nc4cc(C(F)(F)F)ccc4Cl)nccn3n2)cc1 | > 100 µM | > 100 µM | > 100 | > 100 | – | – | 14.1 µM | > 100 µM | > 100 µM | > 100 µM | 8.5 µM | > 100 µM | > 100 µM | > 100 µM | – | – | 5.01 µM | > 100 µM | > 100 | > 100 µM |
| Clc1ccc2c(c1)N(CCCN1CCCC1)c1ccccc1S2 | 11.8 µM | 24.4 µM | 2.01 | 4.91 | 3.93 | 14.2 µM | 3.94 µM | 16.2 µM | 3.22 µM | 13.6 µM | – | – | 6.61 µM | 20.7 µM | 11 | 24.5 µM | 3.19 µM | 12.1 µM | 7.4 | 24.3 µM |
